This note sets out measurements from patent publication US12600726B2, “Antagonists of the muscarinic acetylcholine receptor M4” (Vanderbilt University, priority 2017, dated 2026).

Molecules are shown by their SMILES.

One may read the IC50 as the concentration needed to halve the response being measured.

In one assay the target is T1, Rat M4 (Rattus norvegicus, UniProt P08485).
T1 construct: expressed in transfected cells; host or cells: CHO-K1 (ATCC), stably expressing M4 and Gqi5
T1 sequence (P08485 1-478): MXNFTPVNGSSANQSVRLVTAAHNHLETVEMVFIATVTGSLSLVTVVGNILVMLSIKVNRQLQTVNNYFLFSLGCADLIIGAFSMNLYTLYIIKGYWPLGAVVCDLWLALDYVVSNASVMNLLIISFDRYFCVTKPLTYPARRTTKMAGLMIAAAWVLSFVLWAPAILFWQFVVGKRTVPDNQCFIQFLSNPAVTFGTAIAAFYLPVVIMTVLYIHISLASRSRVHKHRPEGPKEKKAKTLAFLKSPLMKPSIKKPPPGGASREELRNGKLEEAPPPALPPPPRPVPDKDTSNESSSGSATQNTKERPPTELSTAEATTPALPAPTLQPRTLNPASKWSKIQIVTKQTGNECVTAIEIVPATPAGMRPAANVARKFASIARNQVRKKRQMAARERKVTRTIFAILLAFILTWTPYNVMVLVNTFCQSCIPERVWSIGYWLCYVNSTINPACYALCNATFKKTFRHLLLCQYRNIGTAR
Put plainly: mAChR M4 cell-based functional calcium flux assay (rat M4/Gqi5/CHO cells). Particulars: for Emin (rat M4): % ACh maximum at 30 μM. As for the experimental part:
(§1) Human, rat, or mouse M4. cDNA, along with the chimeric G protein Gqi5, were transfected into Chinese hamster ovary (CHO-K1) cells purchased from the American Type Culture Collection using Lipofectamine2000. M4/Gqi5/CHO cells were grown in Ham's F-12 medium containing 10% heat-inactivated fetal bovine serum (FBS), 20 mM HEPES, 500 μg/mL G418 sulfate, and 200 μg/mL Hygromycin B.
(§2) For high throughput measurement of agonist-evoked increases in intracellular calcium, CHO-K1 cells stably expressing muscarinic receptors were plated in growth medium lacking G418 and hygromycin at 15,000 cells/20 μL/well in Greiner 384-well black-walled, tissue culture (TC)-treated, clear-bottom plates (VWR). Cells were incubated overnight at 37° C. and 5% CO2. The next day, cells were washed using an ELX 405 (BioTek) with assay buffer; the final volume was then aspirated to 20 μL. Next, 20 μL of a 2.3 μM stock of Fluo-4/acetoxymethyl ester (Invitrogen, Carlsbad, CA), prepared as a 2.3 mM stock in DMSO and mixed in a 1:1 ratio with 10% (w/v) Pluronic F-127 and diluted in assay buffer, was added to the wells and the cell plates were incubated for 50 min at 37° C. and 5% CO2. Dye was removed by washing with the ELX 405 and the final volume was aspirated to 20 μL. Compound master plates were formatted in a 10 point concentration-response curve (CRC) format (1:3 dilutions) in 100% DMSO with a starting concentration of 10 or 1 mM using a BRAVO liquid handler (Agilent). Test compound CRCs were then transferred to daughter plates (240 nL) using the Echo acoustic plate reformatter (Labcyte, Sunnyvale, CA) and then diluted into assay buffer (40 μL) to a 2× stock using a Thermo Fisher Combi (Thermo Fisher Scientific, Waltham, MA).
(§3) Calcium flux was measured using the Functional Drug Screening System (FDSS) 6000 or 7000 (Hamamatsu Corporation, Tokyo, Japan) as an increase in the fluorescent static ratio. Compounds were applied to cells (20 μL, 2×) using the automated system of the FDSS at 2 seconds into the protocol and the data were collected at 1 Hz. At 143 s, 10 μL of an EC20 concentration of the muscarinic receptor agonist acetylcholine was added (5×), followed by the addition of 12 μL of an EC80 concentration of acetylcholine at the 268 s time point (5×). Agonist activity was analyzed as a concentration-dependent increase in calcium mobilization upon compound addition. Positive allosteric modulator activity was analyzed as a concentration-dependent increase in the EC20 acetylcholine response. Antagonist activity was analyzed as a concentration-dependent decrease in the EC80 acetylcholine response; for the purposes of the tables herein, an IC50 (inhibitory concentration 50) was calculated as a concentration-dependent decrease of the response elicited by an EC80 concentration of acetylcholine. Concentration-response curves were generated using a four-parameter logistical equation in XLFit curve fitting software (IDBS, Bridgewater, NJ) for Excel (Microsoft, Redmond, WA) or Prism (GraphPad Software, Inc., San Diego, CA) or the Dotmatics software platform (Dotmatics, Bishop's Stortford, UK).
(§4) Compounds were synthesized as described above. Activity (IC50 and Emin) was determined in the mAChR M4 cell-based functional assay as described above and the data are shown in Table 2 and Table 3. The compound number corresponds to the compound numbers used in the examples and Tables 1 and 1.1.

A further assay concerns the target T2, Human M4 (Homo sapiens, UniProt P08173).
T2 construct: expressed in transfected cells; host or cells: CHO-K1 (ATCC), stably expressing M4 and Gqi5
T2 sequence (P08173 1-479): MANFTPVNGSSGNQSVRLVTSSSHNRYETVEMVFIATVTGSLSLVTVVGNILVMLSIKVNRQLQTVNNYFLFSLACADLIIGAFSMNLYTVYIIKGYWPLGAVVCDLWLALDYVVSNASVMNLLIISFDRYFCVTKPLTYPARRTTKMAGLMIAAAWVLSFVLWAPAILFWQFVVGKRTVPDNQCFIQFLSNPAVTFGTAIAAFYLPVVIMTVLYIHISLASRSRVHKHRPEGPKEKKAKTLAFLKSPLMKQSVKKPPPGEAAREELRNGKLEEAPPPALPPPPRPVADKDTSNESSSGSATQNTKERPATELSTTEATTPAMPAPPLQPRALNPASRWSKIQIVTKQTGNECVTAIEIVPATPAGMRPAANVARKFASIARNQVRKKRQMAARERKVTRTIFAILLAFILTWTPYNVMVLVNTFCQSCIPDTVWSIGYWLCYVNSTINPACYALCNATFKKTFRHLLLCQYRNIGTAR
Kind of assay: mAChR M4 cell-based functional calcium flux assay (human M4/Gqi5/CHO cells). As to conditions: for Emin (human M4): % ACh maximum at 30 μM; for IC50: decrease of the response to an EC80 concentration of acetylcholine. As for the experimental part: as §1, §2, §3, §4

Setting [1] is: decrease of the response to an EC80 concentration of acetylcholine.

In the case of `Fc1ccc(Cl)c(-c2ccc(NCC3CC34CCN(Cc3ncccc3C(F)(F)F)CC4)nn2)c1` (centres unmarked) [Compound 1, 6-(2-chloro-5-fluorophenyl)-N-((6-((3-(trifluoromethyl)pyridin-2-yl)methyl)-6-azaspiro[2.5]octan-1-yl)methyl)pyridazin-3-amine], the “Emin (rat M4)” value at Rat M4 is on record as 2.75%. Moreover, the results for the IC50 at Rat M4 (setting [1]) and at Human M4 were 1.15 µM and 0.0746 µM, respectively. Besides, at Human M4, the “Emin (human M4)” value is recorded as 2.74%.
Take `CC(C)(C)CCN1CCC2(CC1)CC2CNc1ccc(-c2ccc(F)cc2)nn1` (centres unmarked) [Compound 2, N-((6-(3,3-Dimethylbutyl)-6-azaspiro[2.5]octan-1-yl)methyl)-6-(4-fluorophenyl)pyridazin-3-amine]: the “Emin (rat M4)” value at Rat M4 is listed as 3.35%. The IC50 at Rat M4 (setting [1]) was found to be 0.159 µM. Further, at Human M4, the “Emin (human M4)” value stood at 2.54% and the half-maximal inhibitory concentration (IC50) is 0.0424 µM.
For `Cc1nn(C)cc1-c1ccc(NCC2CC23CCN(C[C@H]2C[C@@H]4CC[C@H]2O4)CC3)nn1` (stereo partly drawn) [Compound 3, N-((6-(((1R,2R,4S)-7-Oxabicyclo[2.2.1]heptan-2-yl)methyl)-6-azaspiro[2.5]octan-1-yl)methyl)-6-(1,3-dimethyl-1H-pyrazol-4-yl)pyridazin-3-amine], in that order: 7.69%, 0.742 µM, 3.52% and 0.0436 µM.
For `Cc1cnn(C)c1-c1ccc(NC(=O)C2CC23CCN(CCC(C)(C)C)CC3)nn1` (centres unmarked) [Compound 5, N-(6-(1,4-dimethyl-1H-pyrazol-5-yl)pyridazin-3-yl)-6-(3,3-dimethylbutyl)-6-azaspiro[2.5]octane-1-carboxamide], the “Emin (rat M4)” value on Rat M4 came out at 18.7%. On Rat M4 (setting [1]), the IC50 was found to be 5.72 µM. On Human M4, the “Emin (human M4)” value amounted to 5.53% and the 50% inhibitory concentration (IC50) came to 1.68 µM.
With `Cc1nn(C)cc1-c1ccc(NCC2CC23CCN(CCC(C)(C)C)CC3)nc1` (centres unmarked) [Compound 6, N-[[6-(3,3-dimethylbutyl)-6-azaspiro[2.5]octan-2-yl]methyl]-5-(1,3-dimethylpyrazol-4-yl)pyridin-2-amine], at Rat M4, the “Emin (rat M4)” value was found to be 3.97%. For the same compound, on Rat M4 (setting [1]), the concentration for half-maximal inhibition (IC50) was found to be 0.313 µM. In addition, on Human M4, the “Emin (human M4)” value came to 3.87% and the IC50 turned out to be 0.103 µM.
On to `Cc1cnn(C)c1-c1ccc(NC(=O)C2CC23CCN(CC(C)C(C)(C)C)CC3)nn1` (centres unmarked) [Compound 7, N-[6-(2,4-dimethylpyrazol-3-yl)pyridazin-3-yl]-6-(2,3,3-trimethylbutyl)-6-azaspiro[2.5]octane-2-carboxamide], for which the “Emin (rat M4)” value at Rat M4 came out at 22.7%. Besides, the IC50 on Rat M4 (cells printed in μM, decrease of the EC80 acetylcholine response) was over 10 µM. For the same compound, on Human M4, the “Emin (human M4)” value is 6.29% and the 50% inhibitory concentration (IC50) amounted to 2.24 µM.
As for `Fc1ccc(Cl)c(-c2ccc(OCC3CC34CCN(CC3CCCCC3)CC4)nn2)c1` (centres unmarked) [Compound 87, 2-[[6-(2-chloro-5-fluoro-phenyl)pyridazin-3-yl]oxymethyl]-6-(cyclohexylmethyl)-6-azaspiro[2.5]octane], the “Emin (rat M4)” value on Rat M4 amounted to 3%. Also, the IC50 at Rat M4 (setting [1]) was determined as 1.05 µM.
For `CC(C)(C)CCN1CCC2(CC1)CC2CNc1ccc(C2=CCCC2)nn1` (centres unmarked) [Compound 90, 6-(cyclopenten-1-yl)-N-[[6-(3,3-dimethylbutyl)-6-azaspiro[2.5]octan-2-yl]methyl]pyridazin-3-amine], in that order: 5% and 0.347 µM.
In the case of `CC(C)(C)/C=C/c1ccc(NCC2CC23CCN(CCC(C)(C)C)CC3)nn1` (centres unmarked) [Compound 91, 6-[(E)-3,3-dimethylbut-1-enyl]-N-[[6-(3,3-dimethylbutyl)-6-azaspiro[2.5]octan-2-yl]methyl]pyridazin-3-amine], the “Emin (rat M4)” value at Rat M4 came out at 5%. Further, the half-maximal inhibitory concentration (IC50) at Rat M4 (setting [1]) is 0.409 µM.
Turning to `Cc1ccc(/C=C/c2ccc(NCC3CC34CCN(CCC(C)(C)C)CC4)nn2)cc1` (centres unmarked) [Compound 92, N-[[6-(3,3-dimethylbutyl)-6-azaspiro[2.5]octan-2-yl]methyl]-6-[(E)-2-(p-tolyl)vinyl]pyridazin-3-amine], at Rat M4, the “Emin (rat M4)” value is on record as 4%. Further, at Rat M4 (setting [1]), the IC50 came to 1.01 µM.
